In US20190202823A1, “N-SULFONYLATED PYRAZOLO[3,4-b]PYRIDIN-6-CARBOXAMIDES AND METHOD OF USE” (AbbVie S.à.r.l., priority 2015, published 2019):

target: T1, ΔF508-CFTR (Homo sapiens, UniProt P13569, DEL508-508); experiment: CFTR cell surface levels using HRP-tagged ΔF508-CFTR expressing CFBE cells, in the presence of a co-corrector; assay type: cell-based; conditions: HRP-tagged ΔF508-CFTR CFBE41o- cells, with 3 μM co-corrector
T1 construct: host or cells: CFBE41o- cells, doxycycline-inducible expression
T1 sequence (P13569 with tags, fused parts or gaps DEL508-508): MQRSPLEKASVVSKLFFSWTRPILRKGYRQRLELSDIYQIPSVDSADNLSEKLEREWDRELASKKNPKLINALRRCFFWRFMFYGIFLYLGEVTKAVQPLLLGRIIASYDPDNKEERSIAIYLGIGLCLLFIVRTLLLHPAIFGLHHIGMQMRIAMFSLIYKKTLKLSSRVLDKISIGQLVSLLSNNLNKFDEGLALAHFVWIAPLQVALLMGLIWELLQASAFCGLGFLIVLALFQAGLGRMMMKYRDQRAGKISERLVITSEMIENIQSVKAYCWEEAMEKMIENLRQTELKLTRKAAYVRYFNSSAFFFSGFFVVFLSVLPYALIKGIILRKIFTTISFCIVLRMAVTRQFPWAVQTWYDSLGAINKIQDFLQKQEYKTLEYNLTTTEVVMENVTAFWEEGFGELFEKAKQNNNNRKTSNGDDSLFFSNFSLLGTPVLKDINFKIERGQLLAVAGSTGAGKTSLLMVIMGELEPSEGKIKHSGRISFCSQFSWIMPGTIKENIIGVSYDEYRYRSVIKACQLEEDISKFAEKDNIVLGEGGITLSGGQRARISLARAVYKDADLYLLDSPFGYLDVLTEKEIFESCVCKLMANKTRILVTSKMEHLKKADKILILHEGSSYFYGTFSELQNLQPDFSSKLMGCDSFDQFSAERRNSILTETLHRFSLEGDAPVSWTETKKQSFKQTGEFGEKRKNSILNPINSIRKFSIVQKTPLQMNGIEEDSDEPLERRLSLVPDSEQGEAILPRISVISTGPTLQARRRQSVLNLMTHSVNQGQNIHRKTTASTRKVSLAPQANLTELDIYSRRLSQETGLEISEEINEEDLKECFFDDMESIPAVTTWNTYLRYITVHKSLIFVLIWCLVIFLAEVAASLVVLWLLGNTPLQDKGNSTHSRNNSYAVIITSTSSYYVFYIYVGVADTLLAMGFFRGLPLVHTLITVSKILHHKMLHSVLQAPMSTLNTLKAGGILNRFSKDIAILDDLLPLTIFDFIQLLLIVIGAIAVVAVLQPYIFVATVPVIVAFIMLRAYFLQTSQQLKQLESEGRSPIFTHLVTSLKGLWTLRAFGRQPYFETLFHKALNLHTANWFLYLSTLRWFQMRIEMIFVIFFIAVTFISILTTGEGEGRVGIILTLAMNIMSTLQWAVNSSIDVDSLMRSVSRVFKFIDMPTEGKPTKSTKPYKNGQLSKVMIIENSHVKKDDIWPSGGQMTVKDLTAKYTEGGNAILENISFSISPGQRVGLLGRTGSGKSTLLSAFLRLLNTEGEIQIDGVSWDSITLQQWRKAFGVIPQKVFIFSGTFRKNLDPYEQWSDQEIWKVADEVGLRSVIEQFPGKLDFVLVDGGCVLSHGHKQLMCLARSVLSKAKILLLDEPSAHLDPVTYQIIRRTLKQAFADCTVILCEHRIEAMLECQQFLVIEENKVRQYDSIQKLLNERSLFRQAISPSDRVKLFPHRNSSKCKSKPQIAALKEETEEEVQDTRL
Source text: (§1) Measuring CFTR Cell Surface Levels Using HRP-Tagged ΔF508-CFTR Expressing CFBE Cells
(§2) The HRP-tagged ΔF508-CFTR cell assay measures the expression of CFTR-ΔF508 at the plasma membrane. CFTR-ΔF508 has a folding defect leading to absence of protein at the plasma membrane. This assay is used to evaluate the capacity of compounds to increase the expression of CFTR-ΔF508 at the plasma membrane. […] When HRP-tagged ΔF508-CFTR is present at the plasma membrane, the HRP enzyme activity can be measured. The amount of CFTR-ΔF508 that can be rescued to the plasma membrane is correlated with the amount of functional enzyme that can be measured.
(§3) There are several ways to measure the capacity of compounds to rescue CFTR-ΔF508 to the plasma membrane; either compounds are evaluated on their own and the impact on plasma membrane levels is measured or compounds are evaluated in combination with a co-corrector, i.e. a compound that rescues CFTR-ΔF508 to the plasma membrane but rescue can be enhanced by addition of compounds due to a complementary mode of action.
Activity of Compounds in Combination with Co-Corrector:
On day four, 10 μL of test compounds diluted in PBS (phosphate buffered saline) were added to the plates at a final DMSO concentration of 0.1%. In order to measure compound synergy with a co-corrector, 3 μM co-corrector (3-[(2R,4R)-4-({[1-(2,2-difluoro-1,3-benzodioxol-5-yl)cyclopropyl]carbonyl}amino)-7-methoxy-3,4-dihydro-2H-chromen-2-yl]benzoic acid) was added along with test compounds. All compound plates contained negative controls (DMSO) and positive controls (3 μM co-corrector). Cell plates were incubated at 33° C., 5% CO2 for 20 hours. […] After incubation for 15 minutes in the dark, the chemiluminescence was measured using a plate reader (EnVision®, Perkin Elmer). Raw data were normalized to percentage activity values using the equation: 100×(Sample−Negative control)/(Positive control−Negative Control).

| SMILES | EC50 [nM] |
| --- | --- |
| CC(c1ccc(-c2cc(C(=O)NS(=O)(=O)N(C)C)nc3c2c(C2CCC2)nn3C2CCCCC2)cc1)N1CCOCC1 (stereo not shown) [compound 543] | 39.2 |
| CS(=O)(=O)NC(=O)c1cc(OCCCN2CCCCC2)c2c(C3CCC3)nn(-c3ccccc3)c2n1 [compound 314] | 692 |
| CN(C)S(=O)(=O)NC(=O)c1cc(N2CCC(N3CCC(C#N)C3)CC2)c2c(C3CCC3)nn(-c3ccc(F)cc3)c2n1 (stereo not shown) [compound 561] | 42 |
| CC(C)Oc1nn(C2CCCCC2)c2nc(C(=O)NS(C)(=O)=O)cc(-c3ccc(C4(C#N)CCN(C)CC4)cc3)c12 [compound 639] | 74.4 |
| Cc1nn(C2CCCCC2)c2nc(C(=O)NS(C)(=O)=O)cc(-c3ccc(N4CCOCC4)nc3)c12 [compound 47] | 1600 |

same assay, conditions: HRP-tagged ΔF508-CFTR CFBE41o- cells, with 3 μM co-corrector; positive control 3 μM co-corrector

| SMILES | % Activation [%] |
| --- | --- |
| CN(C)S(=O)(=O)NC(=O)c1cc(C2CCN(CCC(F)(F)F)CC2)c2c(C3CCC3)nn(-c3ccc(F)cc3)c2n1 [compound 604] | 269.3 |
| CC(C)Oc1nn(C2CCCCC2)c2nc(C(=O)NS(C)(=O)=O)cc(-c3ccc(C4(C#N)CCN(C)CC4)cc3)c12 [compound 639] | 464.55 |

target: T1, ΔF508-CFTR; experiment: CFTR cell surface levels using HRP-tagged ΔF508-CFTR expressing CFBE cells, intrinsic corrector capacity; assay type: cell-based; design: % Activation: concentration or dose not given beside the values; conditions: HRP-tagged ΔF508-CFTR expressing CFBE41o- cells; compounds alone (intrinsic corrector capacity); 20 hours at 33° C.
Source text: as §1, §2, §3
Activity of Compounds for their Intrinsic Corrector Capacity:
On day four, L test compounds diluted in PBS were added to the plates at a final DMSO concentration of 0.1%. All compound plates contained negative controls (DMSO) and positive controls ([…] corrector, 3-[(2R,4R)-4-({[1-(2,2-difluoro-1,3-benzodioxol-5-yl)cyclopropyl]carbonyl}amino)-7-methoxy-3,4-dihydro-2H-chromen-2-yl]benzoic acid). Cell plates were incubated at 33° C., 5% CO2 for 20 hours. […] After incubation for 15 minutes in the dark, chemiluminescence was measured using a plate reader (EnVision®, Perkin Elmer). Raw data were normalized to percentage activity values using the equation: 100×(Sample−Negative control)/(Positive control−Negative Control).

| SMILES | EC50 [nM] | % Activation [%] |
| --- | --- | --- |
| CC(C)c1nn(C2CCCCC2)c2nc(C(=O)NS(C)(=O)=O)cc(-c3ccc(N4CCC(F)(F)C4)nc3)c12 [compound 64] | 835 | – |
| CN(C)S(=O)(=O)NC(=O)c1cc(N2CCC(CN3CCOCC3)CC2)c2c(C3CCC3)nn(-c3ccc(F)cc3)c2n1 [compound 409] | – | 272.74 |
| COCC1CCN(Cc2cc(C(=O)NS(=O)(=O)N(C)C)nc3c2c(C2CCC2)nn3-c2ccc(F)cc2)CC1 [compound 521] | 10000 | – |
| CCS(=O)(=O)NC(=O)c1cc(-c2cnc(N(C)C)nc2)c2c(C3CN(C(=O)OC)C3)nn(C3CCCCC3)c2n1 [compound 52] | 11500 | – |
| CC(C)N1CCC(c2cc(C(=O)NS(=O)(=O)N(C)C)nc3c2c(C2CCC2)nn3-c2ccc(F)cc2)CC1 [compound 598] | 10000 | – |
| CCS(=O)(=O)NC(=O)c1cc(-c2ccc(OC)cc2)c2c(C)nn(-c3ccccc3)c2n1 [compound 15] | – | 151.675 |
| CN1CCN(Cc2cc(C(=O)NS(C)(=O)=O)nc3c2c(C2CCC2)nn3-c2ccc(F)cc2)CC1 [compound 518] | 10000 | – |
| CC(C)Oc1nn(C2CCCCC2)c2nc(C(=O)NS(=O)(=O)N(C)C)cc(-c3ccc(CN4CCOCC4)cc3)c12 [compound 406] | – | 160.8 |
| CS(=O)(=O)NC(=O)c1cc(N2CC3(CCOCC3)C2)c2c(C3CCC3)nn(-c3ccccc3)c2n1 [compound 204] | 978 | – |
| COCCS(=O)(=O)NC(=O)c1cc(-c2ccc(CN3CCOCC3)cc2)c2c(OC(C)C)nn(C3CCCCC3)c2n1 [compound 405] | – | 181.2 |
| CC(C)Oc1nn(C2CCCCC2)c2nc(C(=O)NS(C)(=O)=O)cc(-c3ccc(C4(C#N)CCN(C)CC4)cc3)c12 [compound 639] | 132 | 238.35 |
| Cc1nn(C2CCCCC2)c2nc(C(=O)NS(=O)(=O)C3CC3)cc(-c3ccc(N4CCOCC4)cc3)c12 [compound 239] | 99.2 | – |
| COCCS(=O)(=O)NC(=O)c1cc(N2CCC(N3CCOCC3)CC2)c2c(C3CCC3)nn(-c3ccc(F)cc3)c2n1 [compound 407] | – | 125.95 |
| CN(C)S(=O)(=O)NC(=O)c1cc(C2CCN(CC3CC3)CC2)c2c(C3CCC3)nn(-c3ccc(F)cc3)c2n1 [compound 613] | 10000 | – |

target: T2, CFTR ΔF508 (Homo sapiens, UniProt P13569, DEL508-508); experiment: Chronic TECC assay, primary bronchial epithelial cells from CF patients homozygous for CFTR ΔF508; assay type: cell-based; conditions: chronic TECC; with co-corrector and potentiator; AUC = full area under the curve upon forskolin stimulation
T2 construct: bronchial epithelial cells isolated from CF patients homozygous for the CFTR ΔF508 mutation; McGill University; Asterand; University of North Carolina hAEC-CF; host or cells: primary human bronchial epithelial cells from CF patients homozygous for ΔF508
T2 sequence (P13569 with tags, fused parts or gaps DEL508-508): as above
Description: The TECC (Tranepithelial Clamp Circuit, EP-design) assay measures the functionality of the cystic fibrosis Transmembrane Conductance regulator (CFTR) by measuring the short circuit current (Isc) generated over the basolateral and apical membrane of lung epithelial cells. In TECC the transepithelial potential PD and transepithelial resistance (Rt) are measured in an open circuit and transformed to Ieq using Ohm's law. 24 Wells can be measured simultaneously allowing a higher throughput compared to Ussing chambers.
For this purpose, bronchial epithelial cells isolated from CF patients homozygous for the CFTR ΔF508 mutation (hAEC-CF, Epithelix, Geneva, Switzerland; McGill University, Montreal, Qc; Asterand, Detroit, Mich.; University of North Carolina, Chapel Hill, N.C.) are plated on type IV collagen-coated Transwell® supports (Costar).
For electrophysiological recording of the “chronic” experiments, the human airway epithelia are mounted in the TECC heating plate for electrophysiological measurement and kept at 37° C. The epithelia are bathed in a NaCl-Ringer solution (120 mM NaCl, 25 mM NaHCO3, 1.2 mM CaCl2), 1.2 mM MgCl2, 0.8 mM KH2PO4, 0.8 mM K2HP04, pH 7.4, 5 mM glucose) on both the basolateral and apical sides. Test compounds (corrector, co-corrector, 4-[(2R,4R)-4-({[1-(2,2-difluoro-1,3-benzodioxol-5-yl)cyclopropyl]carbonyl}amino)-7-(difluoromethoxy)-3,4-dihydro-2H-chromen-2-yl]benzoic acid, and potentiator, N-(3-carbamoyl-5,5,7,7-tetramethyl-4,7-dihydro-5H-thieno[2,3-c]pyran-2-yl)-1H-pyrazole-5-carboxamide), are re-added to the recording solution prior to measurement. […] Apical amiloride is used to inhibit the endogenous ENaC currents while forskolin is applied on both apical and basolateral side to stimulate CFTR. Measurements are done during a 20 minute timeframe with recordings every 2 minutes. The increase in Ieq is used as a measure for the increased CFTR activity, EC50 values can be generated by measuring impact of different concentrations of compound on Ieq on primary cells, for this purpose each transwell is treated with a different compound concentration. […] Raw data were normalized to percentage activity values using the equation: 100×(Sample−Negative control)/(Positive control−Negative Control).

| SMILES | EC50 [nM] |
| --- | --- |
| CN(C)S(=O)(=O)NC(=O)c1cc(OCC2CCOCC2)c2c(C3CCC3)nn(-c3ccccc3)c2n1 [compound 334] | 100 |
| CC(C)N1CCN(C2CCN(c3cc(C(=O)NS(=O)(=O)N(C)C)nc4c3c(C3CCC3)nn4-c3ccc(F)cc3)CC2)CC1 [compound 382] | 100 |

same assay, conditions: read-out: % Activity at 1 μM (AUC**)

| SMILES | activity at 1 µM [%] |
| --- | --- |
| CS(=O)(=O)NC(=O)c1cc(N2CCC(CCN3CCOCC3)CC2)c2c(C3CCC3)nn(-c3ccccc3)c2n1 [Compound 331, 3-cyclobutyl-N-(methanesulfonyl)-4-{4-[2-(morpholin-4-yl)ethyl]piperidin-1-yl}-1-phenyl-1H-pyrazolo[3,4-b]pyridine-6-carboxamide] | 537 |
| CS(=O)(=O)NC(=O)c1cc(N2CCC(N3CCOCC3)CC2)c2c(C3CCC3)nn(-c3ccccc3)c2n1 [Compound 328, 3-cyclobutyl-N-(methanesulfonyl)-4-[4-(morpholin-4-yl)piperidin-1-yl]-1-phenyl-1H-pyrazolo[3,4-b]pyridine-6-carboxamide] | 532 |

same assay, conditions: read-out: % Activity at 3 μM (AUC**)

| SMILES | activity at 3 µM [%] |
| --- | --- |
| COCC1CCN(c2cc(C(=O)N(C)S(C)(=O)=O)nc3c2c(C2CCC2)nn3-c2ccccc2)CC1 [Compound 657, 3-cyclobutyl-N-(methanesulfonyl)-4-[4-(methoxymethyl)piperidin-1-yl]-N-methyl-1-phenyl-1H-pyrazolo[3,4-b]pyridine-6-carboxamide] | 358 |
| CS(=O)(=O)NC(=O)c1cc(N2CCC(N3CCOCC3)CC2)c2c(C3CCC3)nn(-c3ccccc3)c2n1 [Compound 328, 3-cyclobutyl-N-(methanesulfonyl)-4-[4-(morpholin-4-yl)piperidin-1-yl]-1-phenyl-1H-pyrazolo[3,4-b]pyridine-6-carboxamide] | 423 |
